Structures can show the parent of a compound that is named as a salt. Where two headings read alike, the source gives them in different places.
Key:
Rat FAAH-1 = biological target: T1, Rat FAAH-1 (Rattus norvegicus, UniProt P97612); assay: Assay Method 2: rat FAAH-1 assay, 3H-anandamide hydrolysis in homogenate of SK-N-MC cells transfected with rat FAAH
T1 sequence (P97612 1-579): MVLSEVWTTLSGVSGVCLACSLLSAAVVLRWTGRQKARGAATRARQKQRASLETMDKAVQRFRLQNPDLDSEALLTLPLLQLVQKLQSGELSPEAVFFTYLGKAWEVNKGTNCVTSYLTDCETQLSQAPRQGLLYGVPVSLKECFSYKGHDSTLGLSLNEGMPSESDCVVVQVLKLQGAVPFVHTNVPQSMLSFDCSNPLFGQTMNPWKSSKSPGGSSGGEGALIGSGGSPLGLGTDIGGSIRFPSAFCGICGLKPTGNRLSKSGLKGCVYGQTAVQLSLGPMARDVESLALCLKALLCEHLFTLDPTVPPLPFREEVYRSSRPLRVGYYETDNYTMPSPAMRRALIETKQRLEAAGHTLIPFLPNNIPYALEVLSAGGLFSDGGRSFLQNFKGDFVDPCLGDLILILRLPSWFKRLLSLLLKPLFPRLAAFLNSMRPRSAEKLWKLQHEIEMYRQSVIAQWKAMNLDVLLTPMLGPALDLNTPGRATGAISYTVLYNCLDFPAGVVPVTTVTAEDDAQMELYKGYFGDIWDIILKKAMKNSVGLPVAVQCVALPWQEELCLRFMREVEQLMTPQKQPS

FAAH = biological target: T2, FAAH (Homo sapiens, UniProt O00519); assay: Assay Method 1: FAAH assay, 3H-anandamide hydrolysis in homogenate of T84 cells or SK-N-MC cells transfected with human FAAH
T2 sequence (O00519 1-579): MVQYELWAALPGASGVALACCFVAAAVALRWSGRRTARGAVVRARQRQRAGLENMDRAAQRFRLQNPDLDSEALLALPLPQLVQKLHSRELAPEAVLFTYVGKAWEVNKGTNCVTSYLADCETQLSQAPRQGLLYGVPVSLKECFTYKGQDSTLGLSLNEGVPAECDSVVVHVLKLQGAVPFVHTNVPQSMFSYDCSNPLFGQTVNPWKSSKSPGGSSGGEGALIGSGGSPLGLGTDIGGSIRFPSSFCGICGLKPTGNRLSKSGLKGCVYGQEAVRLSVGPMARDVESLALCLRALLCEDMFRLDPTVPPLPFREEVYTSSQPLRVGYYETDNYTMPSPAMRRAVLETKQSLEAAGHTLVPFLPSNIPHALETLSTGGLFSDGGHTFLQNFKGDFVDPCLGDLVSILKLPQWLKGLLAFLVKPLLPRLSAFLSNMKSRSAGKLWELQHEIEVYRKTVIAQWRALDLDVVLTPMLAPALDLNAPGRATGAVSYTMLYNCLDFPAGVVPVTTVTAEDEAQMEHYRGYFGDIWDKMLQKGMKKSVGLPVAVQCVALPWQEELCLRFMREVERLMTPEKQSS

[1] = read-out: Assay 2 IC50, Table 2, Comparative Examples, rat FAAH-1
[2] = read-out: Assay 1 IC50, Table 2, Comparative Examples, human FAAH

| SMILES | IC50 (Rat FAAH-1) [nM] | IC50 (FAAH) [nM] | IC50 (Rat FAAH-1; [1]) [nM] | IC50 (FAAH; [2]) [nM] |
| --- | --- | --- | --- | --- |
| OC(CNc1cc(-c2ccc(C(F)(F)F)c(Cl)c2)ncn1)c1ccc(-n2ccnc2)cc1 (stereo not drawn) [Example 200, 2-({6-[3-Chloro-4-(trifluoromethyl)phenyl]pyrimidin-4-yl}amino)-1-[4-(1H-imidazol-1-yl)phenyl]ethanol] | 1600 | 165 | – | – |
| CSc1nc(NC[C@H](O)c2ccccc2)cc(-c2ccc(C(F)(F)F)c(F)c2)n1 [Example 102, (1R)-2-({6-[3-Fluoro-4-(trifluoromethyl)phenyl]-2-(methylsulfanyl)pyrimidin-4-yl}amino)-1-phenylethanol trifluoroacetic acid salt] | 50 | 17 | – | – |
| O[C@@H](CNc1cc(-c2ccc(Cl)c(Cl)c2)ncn1)c1ccccc1 [Example 95, (1R)-2-{[6-(3,4-Dichlorophenyl)-pyrimidin-4-yl]amino}-1-phenylethanol] | 66 | 18 | – | – |
| CC(C)(C)c1ccc(-c2cc(NCC(O)c3ccccc3)ncn2)cc1 (stereo not drawn) [Example 224, 2-({6-[4-(1,1-Dimethylethyl)phenyl]pyrimidin-4-yl}amino)-1-phenylethanol] | 538 | 28 | – | – |
| O[C@@H](CNc1ncnc(-c2ccc(C(F)(F)F)c(Cl)c2)n1)c1ccccc1 [Example 104, (1R)-2-({4-[3-Chloro-4-(trifluoromethyl)phenyl]-1,3,5-triazin-2-yl}amino)-1-phenylethanol trifluoroacetic acid salt] | 58 | 130 | – | – |
| CN(C)c1ccc(-c2cc(NC[C@H](O)c3ccccc3)ncn2)cc1 [Example 65, (1R)-2-({6-[4-(Dimethylamino)phenyl]pyrimidin-4-yl}amino)-1-phenylethanol] | 6000 | 38 | – | – |
| CNc1nc(NC[C@H](O)c2ccccc2)cc(-c2ccc(C(F)(F)F)c(Cl)c2)n1 [Example 141, (1R)-2-({6-[3-Chloro-4-(trifluoromethyl)phenyl]-2-(methylamino)pyrimidin-4-yl}amino)-1-phenylethanol trifluoroacetic acid salt] | 5 | 12 | – | – |
| O[C@@H](CNc1cc(-c2cc(F)cc(C(F)(F)F)c2)ncn1)c1ccccc1 [Example 42, (1R)-2-({6-[3-Fluoro-5-(trifluoromethyl)phenyl]pyrimidin-4-yl}amino)-1-phenylethanol trifluoroacetic acid salt] | 793 | 206 | – | – |
| OC(CNc1cc(-c2cccs2)ncn1)c1ccccc1 (stereo not drawn) [CE5, 1-Phenyl-2-(6-thiophen-2-yl-pyrimidin-4-ylamino)-ethanol, reference compound] | – | – | > 10000 | > 10000 |
| O[C@@H](CNc1cc(-c2cc(F)c(F)c(F)c2)ncn1)c1ccccc1 [Example 54, (1R)-1-Phenyl-2-{[6-(3,4,5-trifluorophenyl)pyrimidin-4-yl]amino}ethanol trifluoroacetic acid salt] | 443 | 277 | – | – |
| OCCNc1nc(NC[C@H](O)c2ccccc2)cc(-c2ccc(C(F)(F)F)c(Cl)c2)n1 [Example 160, (1R)-2-({6-[3-Chloro-4-(trifluoromethyl)phenyl]-2-[(2-hydroxyethyl)amino]pyrimidin-4-yl}amino)-1-phenylethanol trifluoroacetic acid salt] | 290 | 150 | – | – |
| Cn1c(-c2cc(NC[C@H](O)c3ccccc3)ncn2)cc2ccccc21 [Example 55, (1R)-2-{[6-(1-Methyl-1H-indol-2-yl)pyrimidin-4-yl]amino}-1-phenylethanol trifluoroacetic acid salt] | 1700 | 20 | – | – |
| OC(CNc1cc(-c2ccc(OC(F)(F)F)cc2)ncn1)c1ccc(Cl)c(Cl)c1 (stereo not drawn) [Example 114, 1-(3,4-Dichlorophenyl)-2-[(6-{4-[(trifluoromethyl)oxy]phenyl}-pyrimidin-4-yl)amino]ethanol] | 43 | 46 | – | – |
| CC(=O)c1ccc(-c2cc(NCC(O)c3ccccc3)ncn2)s1 (stereo not drawn) [Example 236, 1-{5-[6-(2-Hydroxy-2-phenyl-ethylamino)-pyrimidin-4-yl]-thiophen-2-yl}-ethanone] | 4000 | 700 | – | – |
| C[C@H](Nc1cc(-c2ccc(C(F)(F)F)c(Cl)c2)ncn1)[C@H](O)c1ccccc1 [Example 179] | 40 | 9 | – | – |
| O[C@@H](CNc1cc(-c2ccc(I)cc2)ncn1)c1ccccc1 [Example 142, (1R)-2-{[6-(4-Iodophenyl)pyrimidin-4-yl]amino}-1-phenylethanol] | 60 | 9 | – | – |
| COc1cccc(C(O)CNc2cc(-c3ccc(OC(F)(F)F)cc3)ncn2)c1 (stereo not drawn) [Example 117] | 22 | 32 | – | – |
| OC(CNc1cc(-c2ccc(C(F)(F)F)c(Cl)c2)ncn1)c1ccccc1F (stereo not drawn) [Example 212, 2-({6-[3-Chloro-4-(trifluoromethyl)phenyl]pyrimidin-4-yl}amino)-1-(2-fluorophenyl)ethanol] | 39 | 65 | – | – |
| OC(CNc1cc(-c2ccc(C(F)(F)F)c(Cl)c2)ncn1)c1ccc(N2CCCC2)cc1 (stereo not drawn) [Example 208, 2-({6-[3-Chloro-4-(trifluoromethyl)phenyl]pyrimidin-4-yl}amino)-1-(4-pyrrolidin-1-ylphenyl)ethanol] | 500 | 28 | – | – |
| OC(CNc1cc(-c2c(F)cccc2F)ncn1)c1ccccc1 (stereo not drawn) [CE4, 2-[6-(2,6-Difluoro-phenyl)-pyrimidin-4-ylamino]-1-phenyl-ethanol, reference compound] | – | – | > 10000 | > 10000 |
| O[C@@H](CNc1cc(-c2ccc3c(C(F)(F)F)csc3c2)ncn1)c1ccccc1 [Example 221] | 480 | 19 | – | – |
| Cc1noc2cc(-c3cc(NC[C@H](O)c4ccccc4)ncn3)ccc12 [Example 165, (1R)-2-{[6-(3-Methyl-1,2-benzisoxazol-6-yl)pyrimidin-4-yl]amino}-1-phenylethanol] | 19 | 4 | – | – |
| O[C@@H](CNc1cc(-c2ccc(F)c(Cl)c2)ncn1)c1ccccc1 [Example 83, (1R)-2-{[6-(3-Chloro-4-fluorophenyl)pyrimidin-4-yl]amino}-1-Phenylethanol trifluoroacetic acid salt] | 654 | 210 | – | – |
| OC(CNc1cc(-c2ccc(OC(F)(F)F)cc2)ncn1)c1ccc(Cl)cc1 (stereo not drawn) [Example 109, 1-(4-Chlorophenyl)-2-[(6-{4-[(trifluoromethyl)oxy]phenyl}pyrimidin-4-yl)amino]ethanol] | 42 | 150 | – | – |
| Cc1n[nH]c2cc(-c3cc(NC[C@H](O)c4ccccc4)ncn3)ccc12 [Example 140, (1R)-2-{[6-(3-Methyl-1H-indazol-6-yl)pyrimidin-4-yl]amino}-1-phenylethanol trifluoroacetic acid salt] | 265 | 127 | – | – |
| CCOc1ccc(-c2cc(NC[C@H](O)c3ccccc3)ncn2)cc1C [Example 31, (1R)-2-{[6-(4-Ethoxy-3-methylphenyl)pyrimidin-4-yl]amino}-1-Phenylethanol trifluoroacetic acid salt] | 21 | 3 | – | – |
| O[C@@H](CNc1cc(-c2csc3ccccc23)ncn1)c1ccccc1 [Example 87, (1R)-2-{[6-(1-Benzothiophen-3-yl)pyrimidin-4-yl]amino}-1-phenylethanol trifluoroacetic acid salt] | 1400 | 42 | – | – |
| OC(CNc1cc(-c2ccc(C(F)(F)F)c(Cl)c2)ncn1)c1c(F)cccc1F (stereo not drawn) [Example 211, 2-({6-[3-Chloro-4-(trifluoromethyl)phenyl]pyrimidin-4-yl}amino)-1-(2,6-difluorophenyl)ethanol] | 50 | 56 | – | – |
| O[C@@H](CNc1cc(-c2cc(F)cc(F)c2)ncn1)c1ccccc1 [Example 58, (1R)-2-{[6-(3,5-Difluorophenyl)pyrimidin-4-yl]amino}-1-phenylethanol trifluoroacetic acid salt] | 470 | 104 | – | – |
| OC(CNc1cc(-c2ccc(C(F)(F)F)c(Cl)c2)ncn1)c1cccc(C(F)(F)F)c1 (stereo not drawn) [Example 135, 2-({6-[3-Chloro-4-(trifluoromethyl)phenyl]pyrimidin-4-yl}amino)-1-[3-(trifluoromethyl)phenyl]ethanol trifluoroacetic acid salt] | 16 | 100 | – | – |

— patent US8598202B2, “Aryl-hydroxyethylamino-pyrimidines and triazines as modulators of fatty acid amide hydrolase” (Janssen Pharmaceutica NV, priority 2008, dated 2013)
